Experiments:
p-Akt in LNCaP cells = experiment: Immunoblot of Akt phosphorylation; assay type: cell-based, human; conditions: below 20 μM, 24 h
Protocol: (§1) The whole-cell lysates were prepared as described previously in immunoprecipitation (IP) buffer containing 50 mM Tris-HCl (pH 8.0), 150 mM NaCl, 5 mM EDTA, and 1% Triton X-100. Protein aliquots of 500 μg were then incubated overnight at 4°C using 2 μg of antibody directed against AR. The Protein A-Cl Agarose beads were then added and further incubated for 6 h at 4°C. The immunoprecipitates were washed four times with the IP buffer and the immunocomplexes were recovered by boiling in SDS sample buffer. Finally the western blot was carried out using anti-AR, anti-SRC-1 and anti-GRIP-1 antibodies (Santa Cruz, CA, USA). For western blot analysis, the cell lysates were prepared after harvesting them in lysis buffer. About 40 μg of total protein was electrophoresed by 12% SDS-PAGE, and the western blotting was carried out using standard protocol. In brief, the analyzed proteins were transferred to nylon membranes. The blots were then blocked with TBST buffer (20 mM Tris-Cl, pH 7.5, 150 mM sodium chloride, 0.05% Tween-20) containing 5% skim milk powder. They were then washed with TBST buffer and incubated overnight at 4°C with the same buffer containing appropriate amounts of primary antibodies: caspase-3, Bax, Bcl-2, Akt, p-Akt, ERK, p-ERK, AR, SRC-1, GRIP-1 (1∶500) and β-actin (1∶1000). The blots were then washed and incubated with anti-rabbit secondary antibody (1∶20,000) conjugated with horseradish peroxidase (HRP). Color development was performed in the dark by using an ECL kit (Amersham, GE Healthcare, Buckinghamshire, UK). The developed blots were subjected to densitometric analysis by ImageJ 1.43 software (NIH, USA) using β-actin as internal control.
(§2) The siRNAs against human Akt and ERK and control siRNA were purchased commercially from Santa Cruz Biotechnology (USA). The LNCaP and PC-3 PCa cells were transfected with siRNAs (at a final concentration of 100 nM) using polyfect transfection reagent (Qiagen, CA, USA) according to manufacturer’s instructions. After 24 h of transfection, the cells were washed properly and replaced with fresh medium. The cells were then treated with 20 μM conjugate for 24 h, and finally protein lysates were prepared on completion of treatment. The levels of p-Akt, p-ERK and cleaved caspase-3 expressions were detected by Western blot analysis.

p-Akt in PC-3 cells = experiment: Immunoblot of Akt phosphorylation; assay type: cell-based, human; conditions: 24 h
Protocol: as §1, §2

p-ERK in PC-3 cells = experiment: Immunoblot of ERK phosphorylation; assay type: cell-based, human; conditions: 24 h
Protocol: as §1, §2

[1] = test system: cleaved caspase-3 in LNCaP cells; experiment: Akt/ERK silencing or inhibition, cleaved caspase-3 immunoblot; assay type: cell-based, human
Protocol: as §2
Figure 5 Differential role of PI3K/Akt and MAPK/ERK pathways in conjugate induced apoptosis of prostate cancer cells. Effects of siRNA mediated silencing of Akt and ERK on conjugate-induced apoptosis of (A) PC-3 and (B) LNCaP cells. LNCaP and PC-3 PCa cells were transfected with siRNAs (at a final concentration of 100 nM) using polyfect transfection reagent. After 24 h of transfection the cells were treated with 20 μM conjugate and allowed to grow for another 24 h. The cell lysates were prepared and the level of p-Akt, p-ERK and cleaved caspase-3 proteins were detected by immunoblot analysis. The histogram on the right panel of each figure represents densitometric analyses of the image data and expressed as percent of control where the results are mean ± SEM of three independent experiments. *and # represents statistically significant difference with respect to control and 20 μM conjugate treated groups respectively at p<0.05.
Supplementary file pone.0093335.s001.tif: Figure S1 (A) Effects of the Akt Kinase inhibitor (A6730) and/or the ERK inhibitor (PD98059) on the conjugate-induced apoptosis of PC-3 and (B) LNCaP cells. The cells were pre-treated with A6730 (5 μM) and/or PD98059 (20 μM) for 1 h before the addition of 20 μM conjugate for additional 24 h (total inhibitor exposure time was 25 h). The collected cell lysates were then immunoblotted using respective antibodies. The histogram on the right panel of each figure represents densitometric analyses of the image data and expressed as percent of control where the results are mean ± SEM of three independent experiments. *and # represents statistically significant difference with respect to control and 20 μΜ conjugate treated groups respectively at p<0.05. (TIF) Click here for additional data file.

[2] = target: T1, AR nuclear localization in LNCaP cells (Homo sapiens, UniProt P10275); experiment: GFP-AR nuclear localization; assay type: cell-based; conditions: 10 and 20 μM with 10 nM DHT
T1 construct: expressed in transfected cells; host or cells: LNCaP and PC-3
Protocol: (§3) For localization studies, pEGFP-AR plasmid was transfected to LNCaP and PC-3 cells (300 ng/10^5 cells).

[3] = target: T2, AR nuclear localization in PC-3 cells (Homo sapiens, UniProt P10275); experiment: GFP-AR nuclear localization; assay type: cell-based; conditions: PC-3, 10 and 20 μM with 10 nM DHT
T2 construct: expressed in transfected cells; host or cells: LNCaP and PC-3
Protocol: as §3

[4] = test system: p53 protein in LNCaP cells; experiment: Immunoblot of p53 with p53 inhibitor; assay type: cell-based, human; conditions: 20 μM PFT-α, 20 and 40 μM conjugate, 24 h
Protocol: The whole-cell lysates were prepared as described previously in immunoprecipitation (IP) buffer containing 50 mM Tris-HCl (pH 8.0), 150 mM NaCl, 5 mM EDTA, and 1% Triton X-100. Protein aliquots of 500 μg were then incubated overnight at 4°C using 2 μg of antibody directed against AR. The Protein A-Cl Agarose beads were then added and further incubated for 6 h at 4°C. The immunoprecipitates were washed four times with the IP buffer and the immunocomplexes were recovered by boiling in SDS sample buffer. Finally the western blot was carried out using anti-AR, anti-SRC-1 and anti-GRIP-1 antibodies (Santa Cruz, CA, USA). For western blot analysis, the cell lysates were prepared after harvesting them in lysis buffer. About 40 μg of total protein was electrophoresed by 12% SDS-PAGE, and the western blotting was carried out using standard protocol. In brief, the analyzed proteins were transferred to nylon membranes. […]
Since there was no significant difference in the number of apoptotic cells between conjugate treated LNCaP (wild type p53) and PC-3 (p53 null) cells (p<0.05), it was intriguing to check if p53 has any role in conjugate induced apoptosis of PCa cells. […] Next we determined the effect of p53-inhibition on conjugate induced cell death by using MTT assay.

T1 sequence (P10275 whole entry): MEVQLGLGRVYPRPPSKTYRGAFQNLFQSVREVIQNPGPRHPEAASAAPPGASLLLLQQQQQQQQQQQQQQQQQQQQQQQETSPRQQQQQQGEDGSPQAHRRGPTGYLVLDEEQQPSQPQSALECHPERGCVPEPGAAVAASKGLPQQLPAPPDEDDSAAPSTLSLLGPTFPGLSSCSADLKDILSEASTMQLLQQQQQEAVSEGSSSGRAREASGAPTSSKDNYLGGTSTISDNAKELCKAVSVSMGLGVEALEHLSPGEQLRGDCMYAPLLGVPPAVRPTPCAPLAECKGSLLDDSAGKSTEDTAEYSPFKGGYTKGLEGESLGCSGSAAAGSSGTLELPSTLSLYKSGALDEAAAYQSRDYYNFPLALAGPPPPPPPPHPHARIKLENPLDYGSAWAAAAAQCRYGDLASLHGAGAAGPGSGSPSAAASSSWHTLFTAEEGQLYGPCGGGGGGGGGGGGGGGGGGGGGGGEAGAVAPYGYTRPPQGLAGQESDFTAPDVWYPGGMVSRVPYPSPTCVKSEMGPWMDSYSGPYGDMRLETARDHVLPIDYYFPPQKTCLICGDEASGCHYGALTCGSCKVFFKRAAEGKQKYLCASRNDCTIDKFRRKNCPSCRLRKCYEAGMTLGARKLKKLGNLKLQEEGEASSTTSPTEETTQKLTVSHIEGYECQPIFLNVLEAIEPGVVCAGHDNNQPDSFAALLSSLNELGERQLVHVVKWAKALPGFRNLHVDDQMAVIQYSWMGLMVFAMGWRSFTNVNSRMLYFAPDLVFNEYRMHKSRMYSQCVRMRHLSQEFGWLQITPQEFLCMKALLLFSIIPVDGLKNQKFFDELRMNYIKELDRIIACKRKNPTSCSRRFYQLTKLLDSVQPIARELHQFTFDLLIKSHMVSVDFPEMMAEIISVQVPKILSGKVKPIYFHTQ
T2 sequence (P10275 whole entry): as above

## COc1cc(/C=C/c2ccc(O)c(/C=N/NC(N)=S)c2)cc(OC)c1 [conjugate, Pterostilbene-isothiocyanate conjugate]
p-Akt in LNCaP cells
  effect on level of p-Akt: negligible effects
p-Akt in PC-3 cells; PC-3, 20 μM
  decrease in level of p-Akt: ~2.2 folds
p-Akt in PC-3 cells; PC-3, 40 μM
  decrease in level of p-Akt: ~4.4 folds
p-ERK in PC-3 cells; PC-3, 20 μM
  reduction in level of p-ERK: 1.3 folds
p-ERK in PC-3 cells; PC-3, 40 μM
  reduction in level of p-ERK: 1.7 folds
[1]; Akt-silenced LNCaP cells, 20 μM conjugate
  increase in cleaved caspase-3 protein level: ~4.5 folds
[1]; ERK-silenced LNCaP cells, 20 μM conjugate
  increase in cleaved caspase-3 level: 6.5 folds
[1]; LNCaP, 20 μM conjugate
  cleaved caspase-3 in ERK-silenced cells plus conjugate relative to conjugate alone: about 1.4 times
[1]; LNCaP, A6730 (5 μM) combined with 20 μM conjugate
  level of cleaved caspase-3 vs conjugate alone: did not show any significant increase
[1]; LNCaP, co-treatment with PD98059 (20 μM) and 20 μM conjugate
  level of cleaved caspase-3 vs conjugate alone: significantly increased
[2]
  DHT induced nuclear localization of AR: significantly inhibited
[3]
  DHT induced nuclear localization of AR: significantly inhibited
[4]
  expression of p53 protein: dose dependent increase

Reference: publication PMC3974779, “Pterostilbene-Isothiocyanate Conjugate Suppresses Growth of Prostate Cancer Cells Irrespective of Androgen Receptor Status” (PLoS ONE, 2014)
